According to US5736510A, “Antibiotics 10381v, w, x,y, z1, z2, pre-b and t” (priority 1996, dated 1998):
Read-outs that look alike come from different tables or passages of the source.

Tests used:
Format in all cases: cell-based
C. perfringens = test system: C. perfringens; design: Minimal Inhibitory Concentration (bioactivity data): unit not given here; conditions: Table IV (separate study)
S. faecalis = conditions: Table IV (separate study)
S. bovis = conditions: strain JB1; Table IV (separate study)
B. fragilis = conditions: strain UC9370; Table IV (separate study)
B. thetaiotaomicron = conditions: strain UC9014; Table IV (separate study)
E. lentum = conditions: strain L-34; Table IV (separate study)
B. fibrisolvens = conditions: Table IV (separate study)
M. elsdenii = conditions: strain B159; Table IV (separate study)
L. multiparus = conditions: strain 40; Table IV (separate study)
S. ruminantium = conditions: Table IV (separate study)
R. amylophilus = conditions: strain H18; Table IV (separate study)
R. flavefaciens = conditions: Table IV (separate study)
E. ruminantium = conditions: strain GA195; Table IV (separate study)
P. ruminicola = conditions: strain 118B; Table IV (separate study)
F. necrophorum = conditions: Table IV (separate study)
S. hyodysenteriae = test system: S. hyodysenteriae; design: unit not given here; conditions: Table IV (separate study)
[1] = test system: anaerobic bacteria which normally inhabit the gut of poultry, swine or cattle; assay: in vitro MIC assay, overall comparison of components across the test organisms; conditions: conclusion from Tables III and IV

C=C(NC(=O)c1ccc2c(n1)-c1nc(oc1C)C(C)NC(=O)c1csc(n1)C(C)NC(=O)c1nc(oc1C)CNC(=O)C(C(C)C)NC(=O)c1csc-2n1)C(N)=O (stereo not shown) [Antibiotic 10381w]
25.0: Minimal Inhibitory Concentration (bioactivity data) (E. lentum)
> 100: Minimal Inhibitory Concentration (bioactivity data) (C. perfringens; strain A82-1) | Minimal Inhibitory Concentration (bioactivity data) (C. perfringens; strain A83-RKP) | Minimal Inhibitory Concentration (bioactivity data) (C. perfringens; strain CCS2-09) | Minimal Inhibitory Concentration (bioactivity data) (C. perfringens; strain P1051C3) | Minimal Inhibitory Concentration (bioactivity data) (C. perfringens; strain P1083C1) | Minimal Inhibitory Concentration (bioactivity data) (C. perfringens; strain UC9452) | Minimal Inhibitory Concentration (bioactivity data) (S. faecalis; strain 71A01) | Minimal Inhibitory Concentration (bioactivity data) (S. faecalis; strain CCS1-03) | Minimal Inhibitory Concentration (bioactivity data) (S. faecalis; strain P1051C4) | Minimal Inhibitory Concentration (bioactivity data) (S. bovis) | Minimal Inhibitory Concentration (bioactivity data) (B. fragilis) | Minimal Inhibitory Concentration (bioactivity data) (B. thetaiotaomicron) | Minimal Inhibitory Concentration (bioactivity data) (B. fibrisolvens; strain 49) | Minimal Inhibitory Concentration (bioactivity data) (B. fibrisolvens; strain D1) | Minimal Inhibitory Concentration (bioactivity data) (M. elsdenii) | Minimal Inhibitory Concentration (bioactivity data) (L. multiparus) | Minimal Inhibitory Concentration (bioactivity data) (R. amylophilus) | Minimal Inhibitory Concentration (bioactivity data) (R. flavefaciens; strain FD1) | Minimal Inhibitory Concentration (bioactivity data) (F. necrophorum; strain FN4070) | Minimal Inhibitory Concentration (bioactivity data) (F. necrophorum; strain FN5052) | Minimal Inhibitory Concentration (bioactivity data) (S. hyodysenteriae; strain 16-4) | Minimal Inhibitory Concentration (bioactivity data) (S. hyodysenteriae; strain B204)
12.5: Minimal Inhibitory Concentration (bioactivity data) (C. perfringens; strain A83-3) | Minimal Inhibitory Concentration (bioactivity data) (S. ruminantium; strain GA192)
< 0.2: Minimal Inhibitory Concentration (bioactivity data) (P. ruminicola)
25: Minimal Inhibitory Concentration (bioactivity data) (E. ruminantium)
100: Minimal Inhibitory Concentration (bioactivity data) (C. perfringens; strain RF1B04) | Minimal Inhibitory Concentration (bioactivity data) (R. flavefaciens; strain C94)
considerably less active: in vitro activity ranking of the individual components [1]
1.6: Minimal Inhibitory Concentration (bioactivity data) (S. ruminantium; strain GA31)
